Assays:
[1] = molecular target: human DAT (Homo sapiens, UniProt Q01959); experiment: DAT transporter inhibitory activity test (neurotransmitter transporter uptake assay kit); type: cell-based
[2] = molecular target: human NET (Homo sapiens, UniProt P23975); experiment: NET transporter inhibitory activity test (neurotransmitter transporter uptake assay kit); type: cell-based
Protocol: Transporter inhibition of human DAT and NET expressed in HEK-293 cells was assessed using a neurotransmitter transporter uptake assay kit. The assay was performed as described in the kit instructions, using centanafadine as a positive control. The specific procedures were as follows:
First day cell plating: HEK 293T cells were digested with trypsin, centrifuged, resuspended with a medium, counted, and seeded into a 6 cm culture dish at a density of 3×10^6 cells/well.
Second day cell transfection: HEK 293T cells were subjected to medium exchange, and then A, B tubes were prepared for NET-pcDNA5/FRT plasmid to be transfected. 200 μL of Opti-MEM was added to tube A, and 10 μL of Lipofectamine™ 3000 was added. The mixture was mixed well. 200 μL of Opti-MEM was added to tube B, and 5 μg of NET-pcDNA5/FRT plasmid was added. The mixture was mixed well, and then 10 μL of P3000™ was added to tube B. The mixture was mixed well (plasmid to transfection reagent ratio 1 μg:2 μL). The diluted solution of tube A was added to the diluted solution of tube B. The mixture was mixed well, and incubated at room temperature for 15 min. Finally, the mixture was gently added to the cells that had been subjected to medium exchange, gently shaken to mix, and then incubated overnight in an incubator at 37° C. with a carbon dioxide concentration of 5%. The cells were used for compound functional activity assays 18-20 h after transfection.
• a) After overnight transfection of NET cells, the cells were digested with trypsin, resuspended with DMEM+10% Dialyzed FBS medium, seeded into a 384-well plate at 20000 cells/well, and incubated overnight. Stably transfected DAT cells were digested with trypsin, resuspended with DMEM+10% Dialyzed FBS medium, seeded into a 384-well plate at 2500 cells/well, and incubated overnight. • b) 1× Assay buffer was prepared according to the kit instruction for later use; the positive compound and the test compound were serially diluted with DMSO, and then diluted to 2× with 1× assay buffer. • c) The medium was removed from the 384-well plate by centrifugation. • d) 16 μL of the compound prepared in step b) was added to corresponding experimental wells, wherein an initial concentration of 2× positive control compound was added to the positive control well, and 0.2% DMSO buffer was added to the negative control well. After centrifuging, the plate was incubated at 37° C. for 30 min. • e) A detection reagent was prepared using 1×HBSS, and 16 μL of the detection reagent was added to each well. After centrifuging, the plate was incubated at 37° C. for 60 min. • f) After incubation, the reading at 510 nm under the excitation of the detection wavelength of 425 nm was measured using a microplate reader. Curve fitting and IC50 calculation were performed using GraphPad Prism software nonlinear regression method.

[3] = In vivo metabolism (pharmacokinetic) experiment in mice; parameters: species or system male ICR mice; settings: male, ICR, mouse, po, 10 mg/kg, male ICR mice
Procedure, shortened: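 Fasted (12 h) male ICR mice received compound in 5% DMSO/5% Solutol HS15/90% saline at 2.5 mg/kg iv or 10 mg/kg po. Plasma and brain sampled 0.083–8 h (n=3 per time point) and analysed by LC-MS/MS. Parameters derived by non-compartmental analysis.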

human DAT, sequence (Q01959 whole entry): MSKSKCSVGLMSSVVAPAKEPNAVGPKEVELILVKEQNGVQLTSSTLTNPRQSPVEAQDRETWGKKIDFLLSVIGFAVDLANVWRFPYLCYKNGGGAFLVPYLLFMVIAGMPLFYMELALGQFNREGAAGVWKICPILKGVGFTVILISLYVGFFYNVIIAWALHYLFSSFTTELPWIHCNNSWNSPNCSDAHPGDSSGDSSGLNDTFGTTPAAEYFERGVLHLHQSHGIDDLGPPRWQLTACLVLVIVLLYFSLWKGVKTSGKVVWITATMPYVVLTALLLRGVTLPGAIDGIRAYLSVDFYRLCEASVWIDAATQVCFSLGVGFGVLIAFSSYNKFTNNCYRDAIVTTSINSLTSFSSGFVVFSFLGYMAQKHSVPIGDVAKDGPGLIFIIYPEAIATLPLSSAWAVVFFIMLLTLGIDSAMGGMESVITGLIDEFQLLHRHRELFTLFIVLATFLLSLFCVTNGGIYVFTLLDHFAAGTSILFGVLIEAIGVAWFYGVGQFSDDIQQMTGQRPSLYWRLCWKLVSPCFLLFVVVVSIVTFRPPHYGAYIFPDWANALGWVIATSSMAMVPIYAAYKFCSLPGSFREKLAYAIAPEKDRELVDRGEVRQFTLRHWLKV
human NET, sequence (P23975 whole entry): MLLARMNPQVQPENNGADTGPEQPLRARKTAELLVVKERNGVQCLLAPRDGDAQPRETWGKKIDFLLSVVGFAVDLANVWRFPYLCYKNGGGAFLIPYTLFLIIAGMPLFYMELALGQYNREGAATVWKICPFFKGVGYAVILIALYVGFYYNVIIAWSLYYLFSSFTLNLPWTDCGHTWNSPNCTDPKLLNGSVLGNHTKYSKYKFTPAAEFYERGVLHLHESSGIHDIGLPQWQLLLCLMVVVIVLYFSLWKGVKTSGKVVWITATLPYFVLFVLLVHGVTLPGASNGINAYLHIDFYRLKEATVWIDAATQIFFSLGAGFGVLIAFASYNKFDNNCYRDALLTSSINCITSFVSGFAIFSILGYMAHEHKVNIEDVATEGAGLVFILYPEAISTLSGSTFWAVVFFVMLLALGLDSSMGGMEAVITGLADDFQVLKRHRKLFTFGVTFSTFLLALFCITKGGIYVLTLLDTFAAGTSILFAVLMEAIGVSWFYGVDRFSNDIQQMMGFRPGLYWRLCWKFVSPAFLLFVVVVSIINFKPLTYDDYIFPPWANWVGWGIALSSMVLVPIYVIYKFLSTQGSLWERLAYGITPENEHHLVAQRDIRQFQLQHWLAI

SMILES: CCNC1(c2ccccc2)CCc2nc(N)sc2C1 (racemic) [rac-A5, N^6-ethyl-6-phenyl-4,5,6,7-tetrahydrobenzothiazole-2,6-diamine]
- IC50 [1]: 2000 nM
- IC50 [2]: 3300 nM
- bioavailability ([3]; oral 10 mg/kg vs iv 2.5 mg/kg, read-out: F (%)): 63%
- AUC(0-inf) ([3]; oral 10 mg/kg, plasma, read-out: AUC0-inf(po)): 1010 ng·h/mL
- Cmax ([3]; oral 10 mg/kg, plasma, read-out: Cmax (po)): 250 ng/mL
- half-life ([3]; oral 10 mg/kg, plasma, read-out: T1/2 (po) (converted)): 2.43 h
